Entries after “also recorded” stand apart in the source; their conditions may differ.
Tested on: panel of up to 42 human chemokines
Assay: Phage-display next generation sequencing screen of overlapping hexadecapeptide libraries, chemokines displayed on streptavidin beads
Assay type: binding
From the text: FIG. 1. Exemplar results from phage display screens. Phage-display libraries were constructed and analysed as described in (McLaughlin, 2013) (Tonikian, 2007). […] FIG. 1A, CC chemokines against evasin A library. FIG. 1B, CXC chemokines against the evasin B library. FIG. 1C, CXC and CX3C chemokines against the viral chemokine binding protein library. FIG. 1D, CXC chemokines against the chemokine library. […] Identified hexadecapeptides were mapped to the position in the originating protein (x-axis) and to fold enrichment (log 2 E, left y-axis). Regions of interest (ROI) were defined where the cumulative residue log 2 E, (clog 2 E:r, right y-axis) exceeds the 95% upper confidence interval of the median clog 2 E:r for the entire protein (indicated as a horizontal dotted line in each panel). Proteins are referred to by their UniProt ID.
Hexadecapeptides were identified using a phage-display next generation sequencing approach (McLaughlin, 2013). Libraries containing a total of 55662 overlapping peptides (from the tick chemokine binding proteins shown in Tables 3A and 3B, the viral chemokine binding proteins shown in Table 3C, the human chemokines shown in Table 3 E, and the human/viral chemokine receptors and other chemokine-binding proteins shown in Table 3D) were first constructed, and then screened against a panel of up to 42 human chemokines, as shown in Table 3F.

[1] = log2E greater than 5, chemokines named by first part of UniProt Entry Name, peptides binding complement C5a (control) excluded
[2] = log2E greater than 5, chemokines named by first part of UniProt Entry Name
[3] = log2E greater than 5, chemokines named by first part of UniProt entry name, C5a (control) binders excluded

Substance	Chemokines Bound [2]	Chemokines Bound [3]	also measured
VP6307 (MYSLVFVILMCIPFSF)			Chemokines Bound [1]: X3CL1, CXL11,; also recorded: CXL13, IL8
CR9432 (ILMFLSDFSFIFSSWA)			Chemokines Bound [1]: CCL1, CXL10,; also recorded: CXL11, SDF1,; also recorded: CXL14, IL8
CR26850 (WVVVFQFQHIMVGLIL)	CCL1, CCL19, and CCL20, CCL28, and SDF1		
CR26310 (VWLMSIVGTFLNVLVI)	CCL17, CCL18,; also recorded: CCL2, CXL10,; also recorded: CXL11, SDF1,; also recorded: CXL14, IL8		
CR5277 (FILYQFELFGFTLIFF)	CCL17, CCL22, and CCL25, CCL28, and CXL10, CXL11, and SDF1		
CR7823 (GVWLMSIVGTFLNVLV)			Chemokines Bound [1]: CCL11, CCL17, and CCL18, CCL2, and CCL8, CXL10, and CXL11, CXL14, and IL8
CR3373 (DLTNWKLLAEIYEYLF)	CCL2, CCL22, and CCL28, CXL10, and CXL11, SDF1, and CXL13, CXL14, and IL8		
CR11556 (LAKLEAFFLNLSIYWS)		CCL18, CCL2, and CCL25, CCL28, and CCL8, X3CL1, and CXL10, CXL11, and SDF1, CXL13, and IL8	
CR24593 (VFLLSLLGNSLVMLVI)	CCL22, CCL25, and CXL10, CXL11, and SDF1, CXL13, and IL8		
CR20939 (SLCLSISLLAEVLMFL)		CCL1, CCL18,; also recorded: CCL19, X3CL1	
CK576 (CADPSESWVQEYVYDL)		CCL17, CCL5,; also recorded: CXL10	
TDGTACYVVERKVWDR [HD3838]			Chemokines Bound [1]: CCL19, CCL2,; also recorded: CCL20, CCL28
CR14849 (LVLGLLLNSLALWVFC)		CCL17, CCL19, and CCL20, CCL28, and SDF1	
CR12240 (LFMFVLSVLGNLTVVS)		CCL17, CCL18,; also recorded: CCL19, CCL25,; also recorded: CCL28, CXL10,; also recorded: CXL11, SDF1	
CR23773 (TSVITWLVAVFASVPG)	CCL1, CCL18, and CCL2, CCL20, and CCL8		
CR4712 (FAIVVAYFLSWGPYNF)	CCL18, CCL19,; also recorded: CCL20, CCL22,; also recorded: CCL25, SDF1		
CR6515 (FWTPYNIVLFLETLVE)			Chemokines Bound [1]: CCL20, CCL22, and CXL10, CXL13, and IL8
CR21134 (SLSISLLAEVLMFLFP)		CCL17, CCL18, and CCL2, CCL25, and CCL28, X3CL1, and CXL10, CXL11, and SDF1, CXL14, and IL8	
CK3115 (LLESYFETNSECSKPG)		CCL19, CCL22,; also recorded: X3CL1, CXL14	

Substance	Chemokines Bound [2]	Chemokines Bound [3]	also measured
CR24707 (VGALGNSLVILVYWYC)	CCL17, CCL18,; also recorded: CCL19, CCL20		
CR5171 (FGVVTSVITWLVAVFA)	CCL11, CCL17, and CCL18, CCL2, and CCL20, CCL22, and CCL25, CCL28, and X3CL1, CXL10, and CXL11, SDF1, and CXL13, CXL14, and IL8		
CR26036 (VTSLLIWVISLLVSLP)	CCL28, X3CL1, and SDF1, CXL14, and IL8		
VP4071 (IKAESKGSELILLDPP)			Chemokines Bound [1]: CCL17, CCL20,; also recorded: CCL22
CR17781 (PSWIISFSVWMAAILL)		CCL17, CCL18, and CCL19, CCL2, and CCL20, CCL22, and CCL25, CCL28, and X3CL1, CXL10, and CXL11, SDF1, and CXL13, CXL14, and IL8	
CR2129 (AVFYALLFVFSLLGNS)		CCL15, CCL18, and CCL19, CCL20, and CCL25, CCL28, and SDF1	
CR24612 (VFLSIFYSVIFAIGLV)	CCL17, CCL18,; also recorded: CCL22, CCL25,; also recorded: CCL28, X3CL1,; also recorded: CXL10, CXL11,; also recorded: SDF1, CXL13,; also recorded: CXL14		
CR6836 (GFFIPLMFMIFSYTFI)			Chemokines Bound [1]: CCL22, CXL14, and IL8
CR22363 (SYRSTYIILLLTWFAG)		CCL18, X3CL1,; also recorded: CXL10	
VP1485 (DLAGLDSLTSPVYVMA)			Chemokines Bound [1]: CCL20, X3CL1, and SDF1
CR15079 (LYAHLASAFLWVVVAV)		CCL17, CCL18,; also recorded: CCL20, CCL22,; also recorded: CCL28, X3CL1,; also recorded: CXL10, CXL11,; also recorded: SDF1, CXL13,; also recorded: CXL14, IL8	
CR28005 (YVSTLDFAIVFILMII)	CCL17, CCL18,; also recorded: CCL19, CCL20,; also recorded: CCL22, CCL28,; also recorded: X3CL1, CXL10,; also recorded: CXL11, SDF1,; also recorded: CXL13		
CR7819 (GVWLMAIVGTFLNVLV)			Chemokines Bound [1]: CCL17, CCL18, and CCL2, CCL20, and CCL22, CXL11, and SDF1, CXL13, and IL8
CR13507 (LLTWLAGLIFSVPAAV)		CCL1, CCL11,; also recorded: CCL17, CCL18,; also recorded: CCL19, CCL2,; also recorded: CCL20, CCL22,; also recorded: CCL25, CCL28,; also recorded: X3CL1, CXL10,; also recorded: CXL11, SDF1,; also recorded: CXL14, IL8	
CR5243 (FIGFFSGIFFIILLTI)	CCL17, CCL18,; also recorded: CCL19, CCL20,; also recorded: CCL22, CXL11,; also recorded: SDF1, CXL14		
CR26327: chemokine binding peptide of Table 5A used in FIG. 5 combinations (VWVASILSSILDTIFH)	CCL2, CXL11, and IL8		
VP6154 (MKSVLYLYILFLSCII)			Chemokines Bound [1]: CCL1, X3CL1, and CXL10, CXL11, and IL8
CR13108 (LLFFVFSFPYHVLNLL)		CCL17, CCL18,; also recorded: CXL10, CXL11,; also recorded: CXL14, IL8	
CR18955 (RFRQYLKAFLAAVLGW)		CCL17, CCL18,; also recorded: CXL14	

Reference: patent publication US20260234188A1, “CHEMOKINE-BINDING PEPTIDES” (Oxford University Innovation Limited, priority 2022, published 2026)
